Source: patent publication US20220033397A1, “PHARMACEUTICAL COMPOUNDS AND THEIR USE AS INHIBITORS OF UBIQUITIN SPECIFIC PROTEASE 19 (USP19)” (ALMAC DISCOVERY LIMITED, priority 2018, published 2022)
pIC50: −log10 of the molar value.

Target: T1, Full-length USP19 (Homo sapiens, UniProt O94966)
T1 construct: Full-length USP19 was purchased from Boston Biochem (E-576); purchased Boston Biochem E-576
T1 sequence (O94966 1-1318): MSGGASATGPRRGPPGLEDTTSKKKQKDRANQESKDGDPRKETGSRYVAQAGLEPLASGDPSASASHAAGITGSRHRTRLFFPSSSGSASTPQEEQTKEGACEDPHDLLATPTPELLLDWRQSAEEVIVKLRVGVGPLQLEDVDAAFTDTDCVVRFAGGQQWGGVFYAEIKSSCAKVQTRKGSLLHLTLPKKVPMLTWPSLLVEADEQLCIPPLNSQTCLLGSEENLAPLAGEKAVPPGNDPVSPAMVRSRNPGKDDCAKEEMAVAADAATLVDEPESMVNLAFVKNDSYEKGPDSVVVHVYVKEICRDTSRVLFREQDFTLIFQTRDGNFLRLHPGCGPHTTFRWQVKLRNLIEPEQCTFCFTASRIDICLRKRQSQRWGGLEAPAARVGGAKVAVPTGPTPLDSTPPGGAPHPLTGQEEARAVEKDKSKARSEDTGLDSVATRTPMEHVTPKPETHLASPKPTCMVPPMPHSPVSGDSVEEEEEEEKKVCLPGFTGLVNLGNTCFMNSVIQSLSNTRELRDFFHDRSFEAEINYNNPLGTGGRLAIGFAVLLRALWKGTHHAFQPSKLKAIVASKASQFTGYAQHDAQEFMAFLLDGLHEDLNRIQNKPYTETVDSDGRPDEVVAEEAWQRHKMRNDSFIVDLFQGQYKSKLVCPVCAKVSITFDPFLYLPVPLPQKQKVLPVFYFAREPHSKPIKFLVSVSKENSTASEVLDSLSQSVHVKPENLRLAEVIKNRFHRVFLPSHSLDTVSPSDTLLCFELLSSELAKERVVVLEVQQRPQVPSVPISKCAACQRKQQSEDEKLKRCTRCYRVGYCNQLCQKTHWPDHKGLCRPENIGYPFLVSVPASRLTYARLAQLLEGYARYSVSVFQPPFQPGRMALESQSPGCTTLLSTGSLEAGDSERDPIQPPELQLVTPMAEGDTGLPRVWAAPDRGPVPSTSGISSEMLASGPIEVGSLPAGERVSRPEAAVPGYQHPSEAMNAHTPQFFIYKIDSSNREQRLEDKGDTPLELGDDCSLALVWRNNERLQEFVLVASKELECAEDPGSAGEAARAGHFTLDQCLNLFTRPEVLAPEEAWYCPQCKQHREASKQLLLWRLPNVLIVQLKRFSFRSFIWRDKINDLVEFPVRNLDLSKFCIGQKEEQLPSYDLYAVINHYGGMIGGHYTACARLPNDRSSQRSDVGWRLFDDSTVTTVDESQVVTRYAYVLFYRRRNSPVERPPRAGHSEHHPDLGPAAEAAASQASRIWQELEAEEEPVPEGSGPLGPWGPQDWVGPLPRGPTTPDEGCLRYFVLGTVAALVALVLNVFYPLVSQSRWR
Assay: USP19 fluorescence polarisation (FP) homogeneous assay with Ubiquitin-Lys-TAMRA substrate
Type: biochemical
Conditions: 2.5 nM USP19, 30 min pre-incubation, average of at least two duplicate experiments
Method in brief: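 Full-length USP19 preincubated 30 min at RT with inhibitor (200 μM to 2 μM series, 8–18 points) before adding 500 nM Ubiquitin-Lys-TAMRA substrate.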

| SMILES | pIC50 |
| --- | --- |
| CS(=N)(=O)c1cn(CC2(O)CCN(C(=O)N3CCOC[C@H]3c3ccccc3)CC23CCCC3)c(=O)cc1-c1ccccc1 (stereo partly drawn) [Example 190, 1-((10-Hydroxy-7-((R)-3-phenylmorpholine-4-carbonyl)-7-azaspiro[4.5]decan-10-yl)methyl)-5-(S-methylsulfonimidoyl)-4-phenylpyridin-2(1H)-one] | > 6.30 |
| CS(C)(=O)=Nc1cn(CC2(O)CCN(C(=O)N3CCNC[C@H]3c3ccccc3)CC23CCCC3)c(=O)cc1-c1ccccc1 (stereo partly drawn) [Example 191, 5-((Dimethyl(oxo)-λ^6-sulfaneylidene)amino)-1-((10-hydroxy-7-((R)-2-phenylpiperazine-1-carbonyl)-7-azaspiro[4.5]decan-10-yl)methyl)-4-phenylpyridin-2(1H)-one] | > 6.30 |
| O=C(NCc1ccccc1)N1CCC(O)(Cn2cnc(-c3ccccc3F)cc2=O)C2(CC2)C1 (stereo not shown) [Example 194, N-Benzyl-8-((4-(2-fluorophenyl)-6-oxopyrimidin-1(6H)-yl)methyl)-8-hydroxy-5-azaspiro[2.5]octane-5-carboxamide] | 3.60 to 4.30 |
| CC1(C)CN(C(=O)NCc2ccccc2)CCC1(O)Cn1cnc(-c2ccccc2F)cc1=O (stereo not shown) [Example 195, N-Benzyl-4-((4-(2-fluorophenyl)-6-oxopyrimidin-1(6H)-yl)methyl)-4-hydroxy-3,3-dimethylpiperidine-1-carboxamide] | 4.30 to 5.30 |
| O=C(NCc1ccccc1)N1CCC(O)(Cn2cnc(Cl)cc2=O)C2(CCCC2)C1 (stereo not shown) [Example 198, N-Benzyl-10-((4-chloro-6-oxopyrimidin-1(6H)-yl)methyl)-10-hydroxy-7-azaspiro[4.5]decane-7-carboxamide] | 3.60 to 4.30 |
| O=C(NCc1ccccc1)N1CCC(O)(Cn2cnc(N3CCCC3)cc2=O)C2(CCCC2)C1 (stereo not shown) [Example 202, N-Benzyl-10-hydroxy-10-((6-oxo-4-(pyrrolidin-1-yl)pyrimidin-1(6H)-yl)methyl)-7-azaspiro[4.5]decane-7-carboxamide] | 4.30 to 5.30 |
| O=C(NCc1ccccc1)N1CCC(O)(Cn2cnc(N3CCOCC3)cc2=O)C2(CCCC2)C1 (stereo not shown) [Example 203, N-Benzyl-10-hydroxy-10-((4-morpholino-6-oxopyrimidin-1(6H)-yl)methyl)-7-azaspiro[4.5]decane-7-carboxamide] | 3.60 to 4.30 |
| O=C(N1CCC(O)(Cn2cnc(-c3ccccc3)cc2=O)C2(CCCC2)C1)N1CCCC1C(F)(F)F (stereo not shown) [Example 206, 3-((10-Hydroxy-7-(2-(trifluoromethyl)pyrrolidine-1-carbonyl)-7-azaspiro[4.5]decan-10-yl)methyl)-6-phenylpyrimidin-4(3H)-one] | 5.30 to 6.30 |
| C[C@@H]1CNCCN1C(=O)N1CCC(O)(Cn2cnc(-c3ccccc3)cc2=O)C2(CCCC2)C1 (stereo partly drawn) [Example 207, 3-((10-Hydroxy-7-((R)-2-methylpiperazine-1-carbonyl)-7-azaspiro[4.5]decan-10-yl)methyl)-6-phenylpyrimidin-4(3H)-one] | 3.60 to 4.30 |
| CC(C)C1CNCCN1C(=O)N1CCC(O)(Cn2cnc(-c3ccccc3)cc2=O)C2(CCCC2)C1 (stereo not shown) [Example 208, 3-((10-Hydroxy-7-(2-isopropylpiperazine-1-carbonyl)-7-azaspiro[4.5]decan-10-yl)methyl)-6-phenylpyrimidin-4(3H)-one] | 3.60 to 4.30 |
| O=C(N1CC2CC2C1)N1CCC(O)(Cn2cnc(-c3ccccc3)cc2=O)C2(CCCC2)C1 (stereo not shown) [Example 209, 3-((7-(3-Azabicyclo[3.1.0]hexane-3-carbonyl)-10-hydroxy-7-azaspiro[4.5]decan-10-yl)methyl)-6-phenylpyrimidin-4(3H)-one] | 3.60 to 4.30 |
| O=C(N1CC[C@@](O)(Cn2cnc(-c3ccccc3)cc2=O)C2(CCCC2)C1)N1CCNC[C@@H]1c1ccccc1 [Example 210, 3-(((S)-10-Hydroxy-7-((S)-2-phenylpiperazine-1-carbonyl)-7-azaspiro[4.5]decan-10-yl)methyl)-6-phenylpyrimidin-4(3H)-one] | > 6.30 |
| O=C(N1CC[C@@](O)(Cn2cnc(-c3ccccc3)cc2=O)C2(CCCC2)C1)N1CCOC[C@H]1c1ccccc1 [Example 211, 3-(((S)-10-Hydroxy-7-((R)-3-phenylmorpholine-4-carbonyl)-7-azaspiro[4.5]decan-10-yl)methyl)-6-phenylpyrimidin-4(3H)-one] | > 6.30 |
| O=C(N1CC[C@@](O)(Cn2cnc(-c3ccccc3)cc2=O)C2(CCCC2)C1)N1CCOC[C@@H]1c1ccccc1 [Example 212, 3-(((S)-10-Hydroxy-7-((S)-3-phenylmorpholine-4-carbonyl)-7-azaspiro[4.5]decan-10-yl)methyl)-6-phenylpyrimidin-4(3H)-one] | 3.60 to 4.30 |

More lines, now with the values ahead:

| pIC50 | SMILES |
| --- | --- |
| > 6.30 | O=C(NCc1ccccc1)N1CCC(O)(Cn2ccc(-c3ccccc3)cc2=O)C2(CCCC2)C1 (stereo not shown) [Example 192, N-Benzyl-10-hydroxy-10-((2-oxo-4-phenylpyridin-1(2H)-yl)methyl)-7-azaspiro[4.5]decane-7-carboxamide] |
| > 6.30 | O=C(NCc1ccccc1)N1CCC(O)(Cn2cnc(-c3ccccc3)cc2=O)C2(CCCC2)C1 (stereo not shown) [Example 193, N-Benzyl-10-hydroxy-10-((6-oxo-4-phenylpyrimidin-1(6H)-yl)methyl)-7-azaspiro[4.5]decane-7-carboxamide] |
| 4.30 to 5.30 | O=C(NCC(F)(F)F)N1CCC(O)(Cn2cnc(-c3ccccc3)cc2=O)C2(CCCC2)C1 (stereo not shown) [Example 196, 10-Hydroxy-10-((6-oxo-4-phenylpyrimidin-1(6H)-yl)methyl)-N-(2,2,2-trifluoroethyl)-7-azaspiro[4.5]decane-7-carboxamide] |
| 3.60 to 4.30 | O=C(NCc1ccccn1)N1CCC(O)(Cn2cnc(-c3ccccc3)cc2=O)C2(CCCC2)C1 (stereo not shown) [Example 197, 10-Hydroxy-10-((6-oxo-4-phenylpyrimidin-1(6H)-yl)methyl)-N-(pyridin-2-ylmethyl)-7-azaspiro[4.5]decane-7-carboxamide] |
| 3.60 to 4.30 | O=C(NCc1cccnc1)N1CCC(O)(Cn2cnc(-c3ccccc3)cc2=O)C2(CCCC2)C1 (stereo not shown) [Example 199, 10-Hydroxy-10-((6-oxo-4-phenylpyrimidin-1(6H)-yl)methyl)-N-(pyridin-3-ylmethyl)-7-azaspiro[4.5]decane-7-carboxamide] |
| 4.30 to 5.30 | O=C(NCc1ccccc1)N1CCC(O)(Cn2cnc(-c3cccnc3)cc2=O)C2(CCCC2)C1 (stereo not shown) [Example 200, N-Benzyl-10-hydroxy-10-((6-oxo-4-(pyridin-3-yl)pyrimidin-1(6H)-yl)methyl)-7-azaspiro[4.5]decane-7-carboxamide] |
| 5.30 to 6.30 | O=C(NCc1ccccc1)N1CCC(O)(Cn2cnc(-c3ccncc3)cc2=O)C2(CCCC2)C1 (stereo not shown) [Example 201, N-Benzyl-10-hydroxy-10-((6-oxo-4-(pyridin-4-yl)pyrimidin-1(6H)-yl)methyl)-7-azaspiro[4.5]decane-7-carboxamide] |
| 4.30 to 5.30 | Cn1cc(-c2cc(=O)n(CC3(O)CCN(C(=O)NCc4ccccc4)CC34CCCC4)cn2)cn1 (stereo not shown) [Example 204, N-Benzyl-10-hydroxy-10-((4-(1-methyl-1H-pyrazol-4-yl)-6-oxopyrimidin-1(6H)-yl)methyl)-7-azaspiro[4.5]decane-7-carboxamide] |
| 5.30 to 6.30 | Cn1nccc1-c1cc(=O)n(CC2(O)CCN(C(=O)NCc3ccccc3)CC23CCCC3)cn1 (stereo not shown) [Example 205, N-Benzyl-10-hydroxy-10-((4-(1-methyl-1H-pyrazol-5-yl)-6-oxopyrimidin-1(6H)-yl)methyl)-7-azaspiro[4.5]decane-7-carboxamide] |
| > 6.30 | O=C(N1CC[C@@](O)(Cn2cnc(-c3ccccc3)cc2=O)C2(CCCC2)C1)N1CCC[C@H]1c1ccccc1 [Example 213, 3-(((S)-10-Hydroxy-7-((S)-2-phenylpyrrolidine-1-carbonyl)-7-azaspiro[4.5]decan-10-yl)methyl)-6-phenylpyrimidin-4(3H)-one] |
| > 6.30 | O=C(NCc1cccs1)N1CC[C@@](O)(Cn2cnc(-c3ccccc3)cc2=O)C2(CCCC2)C1 [Example 214, (S)-10-Hydroxy-10-((6-oxo-4-phenylpyrimidin-1(6H)-yl)methyl)-N-(thiophen-2-ylmethyl)-7-azaspiro[4.5]decane-7-carboxamide] |
